Experimental findings from PubChem BioAssay (NCI) are described below.

Assay in all cases: inhibition of tumour cell growth, NCI panel, 48 h
The subject of assay [1] is UO-31 renal.
The subject of assay [2] is MCF7 breast.
The subject of assay [3] is SF-295 CNS.
In assay [4] the test system is HOP-62 NSCLC.
The subject of assay [5] is NCI/ADR-RES ovarian.
The test system of assay [6] is OVCAR-5 ovarian.
Assay [7] concerns SK-MEL-5 melanoma.
Assay [8] relates to K-562 leukemia.
Assay [9] concerns SK-MEL-28 melanoma.
Assay [10] has as its system OVCAR-4 ovarian.

Where “and” joins values, the source holds several entries; their conditions need not be identical. Identical values can stand only once.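 Following 48 hours of exposure in 96-well plates, responses at five concentrations were used to interpolate endpoints linearly. GI50: concentration for 50% inhibition of growth. TGI marks complete inhibition of growth.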

For `O=c1cc(-c2cccc(F)c2)[nH]c2cc3c(cc12)OCO3`, the GI50 in assay [1] is 0.47 µM; in assay [3], 0.141 µM; in assay [7], 0.0639 µM; in assay [8], 0.338 µM; in [9] it was 0.359 µM. Further, the TGI in [1] was 75 µM and > 63.4 µM; in [2], over 100 µM; in assay [4], 21.3 µM; in [5], 0.0497 µM; in assay [6] it was over 100 µM; in assay [8], 75 µM and > 16.4 µM. Further, the TGI is 75 µM and > 72.4 µM in assay [9]; over 68.1 µM in [10].

For the compound `NC(CO)Cc1cnc[nH]1` (configuration not stated), the GI50 in assay [1], in assay [2], in assay [3], in [4], in assay [5] and in assay [7] was over 100 µM throughout. Besides, the GI50 in assay [8] and in assay [9] was over 100 µM each time. Also, the TGI in [1], in assay [2], in [3], in assay [4], in assay [5] and in assay [6] was over 100 µM in each case. Moreover, the TGI in [7] was over 100 µM; in [8], over 100 µM; in assay [9], over 100 µM; in assay [10] it was over 10 µM.

In the case of `COc1ccc(C(=O)Nc2ncc(Cc3ccc(Cl)cc3)s2)cc1`, the GI50 was 0.91 µM in assay [1]; 0.0385 µM in assay [2]; 0.0561 µM in [3]; 0.0984 µM in [4]; 0.0457 µM in assay [5]; 0.247 µM in assay [6]. The GI50 in [7] is 0.0419 µM; in assay [8], 0.041 µM; in assay [9], 2.12 µM; in assay [10], 2.7 µM. Moreover, the TGI in assay [1] was over 100 µM; in assay [2] it was over 100 µM; in assay [3], 1.97 µM; in assay [4], over 83.4 µM; in [6] it was over 100 µM; in assay [7] it was 2.83 µM. Besides, the TGI in [8], in [9] and in [10] was over 100 µM throughout.

Regarding `Cc1ccc2c(C(C[N+](=O)[O-])c3cccs3)c(-c3ccccc3)[nH]c2c1` (configuration not stated), the GI50 in [1] is 2.03 µM; in assay [2] it was 1.41 µM; in assay [3] it was 1.15 µM; in assay [4], 2.25 µM; in assay [5], 0.984 µM; in [6] it was 4.07 µM. The GI50 was 1.07 µM in [7], 1.16 µM in assay [8], 2.99 µM in assay [9] and 4.45 µM in assay [10]. Besides, the TGI in assay [1] was 6.68 µM; in assay [2] it was 12.8 µM; in assay [3], 4.54 µM; in assay [4], 11.7 µM; in assay [5], 3.68 µM; in assay [6], 11.1 µM. Besides, the TGI in assay [7] is 4.21 µM; in assay [8], over 33.3 µM; in [9], 8.41 µM; in assay [10], 13.9 µM.

For `Fc1cccc(COc2ccc(Nc3ncncc3C#Cc3ccccc3)cc2Cl)c1`, the GI50 in assay [1] was 21.6 µM; in [2], over 25 µM; in [3], over 25 µM; in assay [4] it was over 25 µM; in assay [5], over 25 µM; in [6], over 25 µM. The GI50 in assay [7], in assay [8], in assay [9] and in [10] was over 25 µM throughout. Besides, the TGI in [1], in [2], in [3], in [4], in assay [5] and in assay [6] was over 25 µM throughout. Moreover, the TGI in assay [7], in [8], in [9] and in [10] was over 25 µM in each case.

Regarding `CC(C)(C)c1cc(O)c(O)c(C(C)(C)C)c1`, the GI50 in assay [1] was 2.15 µM; in assay [2], 3.45 µM; in assay [3], 3.53 µM; in assay [4], 8.96 µM; in assay [5], 3.54 µM; in assay [6], 11.1 µM. Besides, the GI50 was 4.68 µM in [7], 2.47 µM in [8], 3 µM in [9] and 2.31 µM in [10]. For the same compound, the TGI in assay [1] amounted to 4.98 µM; in assay [2], 12.8 µM; in assay [3], 14.4 µM; in assay [4], 29 µM; in [5], 17.9 µM; in [6] it was 23.3 µM. Besides, the TGI in [7] worked out at 15.8 µM; in assay [8], 7.44 µM; in [9], 10.7 µM; in [10], 5.84 µM.

For `Cc1cc([C@@H](C)Nc2ccccc2C(=O)O)c2nc(N3CCOCC3)cc(=O)n2c1`, the GI50 in assay [1] was 2.43 µM; in assay [2], 3.36 µM; in assay [3], 1.85 µM; in assay [4], over 10 µM; in assay [5], over 10 µM; in assay [6], over 10 µM. For the same compound, the GI50 in [7], in [8], in [9] and in [10] was over 10 µM in each case. Besides, the TGI in assay [1], in assay [2], in [3], in [4], in assay [5] and in [6] was over 10 µM each time. Besides, the TGI in [7], in assay [8], in assay [9] and in assay [10] was over 10 µM throughout.

For `COC(=O)C(=O)CC(=O)CCn1ncc(Cl)c(Cl)c1=O`, the TGI in [1] was 34.7 µM; in assay [2] it was over 100 µM; in [3], 23 µM; in assay [4], 42.1 µM; in assay [5] it was 44.1 µM; in assay [6], 34.9 µM. Also, the TGI in [7] worked out at 30.8 µM; in assay [8] it was 9.54 µM; in assay [9], 21.9 µM; in assay [10], 6.61 µM. For the same compound, the GI50 in assay [2] was 15.6 µM; in assay [5], 18.6 µM.
